We go through five compounds from patent publication US3974188A, “Process for producing cholestane type steroids” (The Lion Dentifrice Co., Ltd., priority 1974, dated 1976).

The subject of one data set is vascular diffusion. Kind of data set: Test for inhibition of the acceleration of vascular diffusion (inhibition of cutaneous chromoleaching of rat). The class given is in vivo. The note with it: for Inhibition rate (%) / Mean blueing area (mm^2 ± S.E.): rat; for Mean blueing area (mm^2 ± S.E.): none: 200 ± 8.0. From the text: 3. Test for inhibition of the acceleration of vascular diffusion
(Test for inhibition of cutaneous chromoleaching of rat)**
**Juduh, J. D. and Willoughby, D.A.; J. Path. Buct., 83, 567 (1962)

For another data set, the system named is sarcomatous growth. Put plainly: Test for inhibition of sarcomatous growth (Rat cotton pellet method). Type of data set: in vivo. The settings on record: dose 100 mg/kg, 7 rats. From the text: 1. Test for inhibition of sarcomatous growth
(Rat cotton pellet method)*
*Meier, R., Schuler, W. and Desaulees, P. : Experienta, 6, (1950)

For another data set, the system named is mouse. Put plainly: Acute toxicity, LD50. The class given is in vivo. The settings on record: mouse male, 5 weeks; intraperitoneal. An excerpt:
(§1) |LD50 (mouse male, 5 weeks)

Data set [1] is described as follows: Antiinflammatory effect (overall statement). The note with it: in vivo.
The next data set is described as follows: Acute toxicity, LD50. The settings on record: mouse, in vivo, mouse male, 5 weeks. Type of data set: in vivo.
Source text: as §1

On to `CC(C)CCC[C@@H](C)[C@H]1CC[C@H]2[C@@H]3CC[C@H]4C[C@@H](O)CC[C@]4(C)[C@H]3CC[C@]12C` [C, cholestanol], for which the “Inhibition rate (%)” value with vascular diffusion (50 mg/kg P.C.) amounted to 4.5%; with vascular diffusion (100 mg/kg P.C.) it was 6%; in the data set on sarcomatous growth, 4.5%. Besides, the “Mean blueing area (mm^2 ± S.E.)” value is on record as 191 ± 5 mm^2 in the data set on vascular diffusion (50 mg/kg P.C.) and 188 ± 3 mm^2 in the data set with vascular diffusion (100 mg/kg P.C.).

With `CC(C)CCC[C@@H](C)[C@H]1CC[C@H]2[C@@H]3CC[C@H]4C[C@H](OP(=O)(O)O)CC[C@]4(C)[C@H]3CC[C@]12C` [epicholestanyl phosphate], the “acceleration of vascular diffusion (in words)” value with vascular diffusion (100 mg/kg) is “inhibited”. The LD50 in the data set with mouse is listed as 1850 mg/kg.

As to `CC(C)CCC[C@@H](C)[C@H]1CC[C@H]2[C@@H]3CC[C@H]4C[C@H](OP(=O)(O)O)CC[C@]4(C)[C@H]3CC[C@]12C` [dipotassium epicholestanyl phosphate], the “Inhibition rate (%)” value is on record as 18% in the data set on vascular diffusion (50 mg/kg P.C.), 21% in the data set on vascular diffusion (100 mg/kg P.C.) and 21.5% in the data set with sarcomatous growth. Further, the “Mean blueing area (mm^2 ± S.E.)” value in the data set on vascular diffusion (50 mg/kg P.C.) came to 164 ± 4 mm^2; in the data set on vascular diffusion (100 mg/kg P.C.), 158 ± 6 mm^2. Moreover, the “antiinflammatory effect (in words)” value in data set [1] is “remarkably effective as an antiinflammatory agent”. In addition, the LD50 in “Acute toxicity, LD50” (ip, intraperitoneal) was 1580 mg/kg; in the data set “Acute toxicity, LD50” (po), 9300 mg/kg.

For `CC(C)CCC[C@@H](C)[C@H]1CC[C@H]2[C@@H]3CC[C@H]4C[C@@H](OP(=O)(O)O)CC[C@]4(C)[C@H]3CC[C@]12C` [K2 --PEC, dipotassium cholestanyl phosphate], in the data set with sarcomatous growth, the “Inhibition rate (%)” value worked out at 10.0%.

Take `CC(C)CCC[C@@H](C)[C@H]1CC[C@H]2[C@@H]3CC[C@H]4C[C@H](O)CC[C@]4(C)[C@H]3CC[C@]12C` [EC, epicholestanol]: the “Inhibition rate (%)” value in the data set with vascular diffusion (50 mg/kg P.C.) is recorded as 4.5%; with vascular diffusion (100 mg/kg P.C.) it was 10%; in the data set with sarcomatous growth it was 6.9%. For the same compound, the “Mean blueing area (mm^2 ± S.E.)” value in the data set with vascular diffusion (50 mg/kg P.C.) is given as 191 ± 9 mm^2; in the data set with vascular diffusion (100 mg/kg P.C.) it was 180 ± 4 mm^2.

Usually LD50 stands for the dose expected to kill half of the subjects tested. A high value points to a less toxic substance.
